{"source": "patent US11020468B2", "about": "“Compositions, methods and therapies for administering antigen peptide” (priority 2010, dated 2021)", "key": {"P. acnes (ATCC6919)": {"tested_on": "P. acnes (ATCC6919)", "assay": "Anti-inflammatory effect of peptides against intradermic inflammation caused by P. acnes in mice", "type": "in vivo, Balb/c mice", "details": "for anti-inflammatory effect against inflammation caused by P. acnes: vs PBS", "experimental": "Living bacterial cells of P. acnes were put in a deaerated physiological saline while keeping an anaerobic condition to prepare a suspension with the number of the living bacterial cells of P. acnes of 5×10^7 cells/ml, 1×10^8 cells/ml, or 5×10^8 cells/ml. The anaerobic condition was kept by spraying a nitrogen gas. The number of the living bacterial cells of P. acnes was calculated based on the assumption that OD measurement value of 0.98-1.02 at 550 nm measured by a spectrophotometer corresponds to 5×10^8 cells/ml, with reference to Ramstad S. et al., Photochem. Photobiol. Sci., 2006, 5, 66-72.\n50 μl of the prepared suspension of P. acnes was intradermically injected into shaven abdominal midlines, neck portions, lumbar dorsal portions, tail root dorsal portions, and auricles of male Balb/c mice (9-10 weeks old). The inflammatory areas (major axis×minor axis: mm^2) at individual portions to which the suspension was injected intradermically were measured at predetermined times. Each group consisted of five individuals.\nAccordingly, the anti-inflammatory effects of individual peptides were determined under the same conditions, i.e. by intradermically injecting 50 μl of P. acnes (5×10^8 cells/ml) into the abdominal midline and measuring the inflammatory area (mm^2) five days after the injection. FIG. 3 illustrates the procedure for examining the anti-inflammatory effect.\n(§1) FIG. 3 is a drawing schematically illustrating the procedure for examining the anti-inflammatory effect. […] Then, P. acnes was intradermically injected into the abdominal midlines of the mice, and the inflammatory areas were measured 5 days after the injection (Day “23” in FIG. 3). Each group consisted of 10 mice. As Comparative Examples, there were prepared a group of mice to which PBS without PepA was administered and a group of mice to which PepB or PepC was administered instead of PepA, and P. acnes was injected into the groups similarly.\nThe anti-inflammatory effects of individual peptides were examined using an inflammation causing system under the same conditions as in Example 4 except that the peptides to be administered to mice before injection of P. acnes were changed from PepA, PepB, and PepC to PepA and PepD."}, "[1]": {"tested_on": "acne-patient-derived P. acnes (patient strains 1-3)", "assay": "Anti-inflammatory effect of PepA against inflammation caused by patient-derived P. acnes in mice", "type": "in vivo", "details": "for P (inflammatory area compared with control group given PBS): 5 days after injection", "experimental": "as §1\nThe anti-inflammatory effect of PepA was examined by the same procedure as in Example 5 except that bacterial cells of P. acnes to be injected into mice were the acne-patient-derived bacterial cells of P. acnes which were isolated in Example 6.\nFIG. 7 is a graph showing the result of intradermically injecting, after immunization by PepA, the patient strains 1-3 (P1-P. acnes to P3-P. acnes) to the abdominal midlines of mice and measuring inflammatory areas of the mice 5 days after the injection."}, "[2]": {"details": "Example 4, 40 μg/50 μl intradermal, three times, area 5 days after P. acnes injection into abdominal midline"}, "[3]": {"details": "Example 4, 40 μg/50 μl intradermal, three times, area 5 days after injection"}, "[4]": {"details": "Example 5, same conditions as Example 4"}}, "data": [{"sequence": "AIQEKYGDDRERAG (Propionibacterium acnes) [PepA, residues 90-103 of P. acnes membrane protein AAT84059]", "values": [{"measurement": "P (inflammatory area compared with control group given PBS)", "setting": "P. acnes (ATCC6919); [2]", "result": 0.00865}, {"measurement": "anti-inflammatory effect against inflammation caused by P. acnes", "setting": "P. acnes (ATCC6919); [3]", "result": "statistically significantly reduced inflammatory area"}, {"measurement": "P (inflammatory area compared with control group given PBS)", "setting": "P. acnes (ATCC6919); [4]", "result": 0.0012}, {"measurement": "anti-inflammatory effect against inflammation caused by P. acnes", "setting": "P. acnes (ATCC6919); [4]", "result": "statistically significantly reduced inflammatory area"}, {"measurement": "anti-inflammatory effect against injection of patient strains", "setting": "[1]; each of patient strains 1-3, vs PBS", "result": "statistically significantly reducing an inflammatory area"}, {"measurement": "P (inflammatory area compared with control group given PBS)", "setting": "[1]; patient strain 1", "result": 0.0252}, {"measurement": "P (inflammatory area compared with control group given PBS)", "setting": "[1]; patient strain 2", "result": 0.0476}, {"measurement": "P (inflammatory area compared with control group given PBS)", "setting": "[1]; patient strain 3", "result": 0.0237}]}, {"sequence": "GRKPDTNKRSWHRKASR [PepB, reference compound]", "values": [{"measurement": "P (inflammatory area compared with control group given PBS)", "setting": "P. acnes (ATCC6919); [2]", "result": 1}, {"measurement": "anti-inflammatory effect against inflammation caused by P. acnes", "setting": "P. acnes (ATCC6919); [3]", "result": "do not exhibit the anti-inflammatory effect"}]}, {"sequence": "IDQVREYRHRDDDDDEDPGEDG [PepC, reference compound]", "values": [{"measurement": "P (inflammatory area compared with control group given PBS)", "setting": "P. acnes (ATCC6919); [2]", "result": 0.1655}, {"measurement": "anti-inflammatory effect against inflammation caused by P. acnes", "setting": "P. acnes (ATCC6919); [3]", "result": "do not exhibit the anti-inflammatory effect"}]}, {"sequence": "KDADKDNPTYQKV (Propionibacterium acnes) [PepD, residues 260-272 of P. acnes membrane protein YP_056445]", "values": [{"measurement": "P (inflammatory area compared with control group given PBS)", "setting": "P. acnes (ATCC6919); [4]", "result": 0.00175}, {"measurement": "anti-inflammatory effect against inflammation caused by P. acnes", "setting": "P. acnes (ATCC6919); [4]", "result": "statistically significantly reduced inflammatory area"}]}]}
